ChEMBL document CHEMBL3272333, “Synthesis and biologic distribution of radioiodinated beta-adrenergic antagonists” (J Med Chem, 1978)

Columns and labels:
Parameters in all cases: dose 0.5-1 mg/kg, route intravenous
Bone [1] = assay: Biodistribution in Sprague-Dawley rat bone at 0.5 to 1 mg/kg, iv after 15 mins by gamma-well counting analysis; type: ADME, organism-based, Bone element; settings: in vivo, 0.25 h
Stomach [2] = assay: Biodistribution in Sprague-Dawley rat stomach assessed per organ at 0.5 to 1 mg/kg, iv after 15 mins by gamma-well counting analysis; type: ADME, organism-based; settings: in vivo, 0.25 h
[3] = Biodistribution in Sprague-Dawley rat fat and fur assessed per organ at 0.5 to 1 mg/kg, iv after 15 mins by gamma-well counting analysis; type: ADME, organism-based, Adipose tissue; settings: in vivo, 0.25 h
Kidney [4] = assay: Biodistribution in Sprague-Dawley rat kidney at 0.5 to 1 mg/kg, iv after 1 hr by gamma-well counting analysis; type: ADME, organism-based; settings: in vivo
Muscle tissue [5] = assay: Biodistribution in Sprague-Dawley rat muscle assessed per organ at 0.5 to 1 mg/kg, iv after 1 hr by gamma-well counting analysis; type: ADME, organism-based; settings: in vivo
Heart [6] = assay: Biodistribution in Sprague-Dawley rat heart assessed per organ at 0.5 to 1 mg/kg, iv after 15 mins by gamma-well counting analysis; type: ADME, organism-based; settings: in vivo, 0.25 h
Kidney [7] = assay: Biodistribution in Sprague-Dawley rat kidney at 0.5 to 1 mg/kg, iv after 15 mins by gamma-well counting analysis; type: ADME, organism-based; settings: in vivo, 0.25 h
Muscle tissue [8] = assay: Biodistribution in Sprague-Dawley rat muscle at 0.5 to 1 mg/kg, iv after 15 mins by gamma-well counting analysis; type: ADME, organism-based; settings: in vivo, 0.25 h
Large intestine [9] = assay: Biodistribution in Sprague-Dawley rat large intestine assessed per organ at 0.5 to 1 mg/kg, iv after 1 hr by gamma-well counting analysis; type: ADME, organism-based; settings: in vivo
Blood [10] = assay: Biodistribution in Sprague-Dawley rat blood assessed per organ at 0.5 to 1 mg/kg, iv after 15 mins by gamma-well counting analysis; type: ADME, organism-based; settings: in vivo, 0.25 h
Small intestine [11] = assay: Biodistribution in Sprague-Dawley rat small intestine assessed per organ at 0.5 to 1 mg/kg, iv after 1 hr by gamma-well counting analysis; type: ADME, organism-based; settings: in vivo
Thyroid gland [12] = assay: Biodistribution in Sprague-Dawley rat thyroid assessed per organ at 0.5 to 1 mg/kg, iv after 1 hr by gamma-well counting analysis; type: ADME, organism-based; settings: in vivo
Bone [13] = assay: Biodistribution in Sprague-Dawley rat bone at 0.5 to 1 mg/kg, iv after 1 hr by gamma-well counting analysis; type: ADME, organism-based, Bone element; settings: in vivo
Lung [14] = assay: Biodistribution in Sprague-Dawley rat lung assessed per organ at 0.5 to 1 mg/kg, iv after 15 mins by gamma-well counting analysis; type: ADME, organism-based; settings: in vivo, 0.25 h
Liver [15] = assay: Biodistribution in Sprague-Dawley rat liver at 0.5 to 1 mg/kg, iv after 1 hr by gamma-well counting analysis; type: ADME, organism-based; settings: in vivo
[16] = Biodistribution in Sprague-Dawley rat fat and fur assessed per organ at 0.5 to 1 mg/kg, iv after 1 hr by gamma-well counting analysis; type: ADME, organism-based, Adipose tissue; settings: in vivo
Liver [17] = assay: Biodistribution in Sprague-Dawley rat liver assessed per organ at 0.5 to 1 mg/kg, iv after 1 hr by gamma-well counting analysis; type: ADME, organism-based; settings: in vivo
Bone [18] = assay: Biodistribution in Sprague-Dawley rat bone assessed per organ at 0.5 to 1 mg/kg, iv after 1 hr by gamma-well counting analysis; type: ADME, organism-based, Bone element; settings: in vivo
Liver [19] = assay: Biodistribution in Sprague-Dawley rat liver at 0.5 to 1 mg/kg, iv after 15 mins by gamma-well counting analysis; type: ADME, organism-based; settings: in vivo, 0.25 h
Heart [20] = assay: Biodistribution in Sprague-Dawley rat heart at 0.5 to 1 mg/kg, iv after 1 hr by gamma-well counting analysis; type: ADME, organism-based; settings: in vivo
Kidney [21] = assay: Biodistribution in Sprague-Dawley rat kidney assessed per organ at 0.5 to 1 mg/kg, iv after 15 mins by gamma-well counting analysis; type: ADME, organism-based; settings: in vivo, 0.25 h
Spleen [22] = assay: Biodistribution in Sprague-Dawley rat spleen assessed per organ at 0.5 to 1 mg/kg, iv after 1 hr by gamma-well counting analysis; type: ADME, organism-based; settings: in vivo
Muscle tissue [23] = assay: Biodistribution in Sprague-Dawley rat muscle at 0.5 to 1 mg/kg, iv after 1 hr by gamma-well counting analysis; type: ADME, organism-based; settings: in vivo
Thyroid gland [24] = assay: Biodistribution in Sprague-Dawley rat thyroid assessed per organ at 0.5 to 1 mg/kg, iv after 15 mins by gamma-well counting analysis; type: ADME, organism-based; settings: in vivo, 0.25 h
Spleen [25] = assay: Biodistribution in Sprague-Dawley rat spleen at 0.5 to 1 mg/kg, iv after 1 hr by gamma-well counting analysis; type: ADME, organism-based; settings: in vivo
Heart [26] = assay: Biodistribution in Sprague-Dawley rat heart assessed per organ at 0.5 to 1 mg/kg, iv after 1 hr by gamma-well counting analysis; type: ADME, organism-based; settings: in vivo
Thyroid gland [27] = assay: Biodistribution in Sprague-Dawley rat thyroid at 0.5 to 1 mg/kg, iv after 15 mins by gamma-well counting analysis; type: ADME, organism-based; settings: in vivo, 0.25 h
Large intestine [28] = assay: Biodistribution in Sprague-Dawley rat large intestine assessed per organ at 0.5 to 1 mg/kg, iv after 15 mins by gamma-well counting analysis; type: ADME, organism-based; settings: in vivo, 0.25 h
Lung [29] = assay: Biodistribution in Sprague-Dawley rat lung at 0.5 to 1 mg/kg, iv after 1 hr by gamma-well counting analysis; type: ADME, organism-based; settings: in vivo
Liver [30] = assay: Biodistribution in Sprague-Dawley rat liver assessed per organ at 0.5 to 1 mg/kg, iv after 15 mins by gamma-well counting analysis; type: ADME, organism-based; settings: in vivo, 0.25 h
Bone [31] = assay: Biodistribution in Sprague-Dawley rat bone assessed per organ at 0.5 to 1 mg/kg, iv after 15 mins by gamma-well counting analysis; type: ADME, organism-based, Bone element; settings: in vivo, 0.25 h
Spleen [32] = assay: Biodistribution in Sprague-Dawley rat spleen assessed per organ at 0.5 to 1 mg/kg, iv after 15 mins by gamma-well counting analysis; type: ADME, organism-based; settings: in vivo, 0.25 h
Spleen [33] = assay: Biodistribution in Sprague-Dawley rat spleen at 0.5 to 1 mg/kg, iv after 15 mins by gamma-well counting analysis; type: ADME, organism-based; settings: in vivo, 0.25 h
Lung [34] = assay: Biodistribution in Sprague-Dawley rat lung at 0.5 to 1 mg/kg, iv after 15 mins by gamma-well counting analysis; type: ADME, organism-based; settings: in vivo, 0.25 h
Blood [35] = assay: Biodistribution in Sprague-Dawley rat blood at 0.5 to 1 mg/kg, iv after 15 mins by gamma-well counting analysis; type: ADME, organism-based; settings: in vivo, 0.25 h
Blood [36] = assay: Biodistribution in Sprague-Dawley rat blood at 0.5 to 1 mg/kg, iv after 1 hr by gamma-well counting analysis; type: ADME, organism-based; settings: in vivo
Small intestine [37] = assay: Biodistribution in Sprague-Dawley rat small intestine assessed per organ at 0.5 to 1 mg/kg, iv after 15 mins by gamma-well counting analysis; type: ADME, organism-based; settings: in vivo, 0.25 h
Lung [38] = assay: Biodistribution in Sprague-Dawley rat lung assessed per organ at 0.5 to 1 mg/kg, iv after 1 hr by gamma-well counting analysis; type: ADME, organism-based; settings: in vivo
Stomach [39] = assay: Biodistribution in Sprague-Dawley rat stomach assessed per organ at 0.5 to 1 mg/kg, iv after 1 hr by gamma-well counting analysis; type: ADME, organism-based; settings: in vivo
Muscle tissue [40] = assay: Biodistribution in Sprague-Dawley rat muscle assessed per organ at 0.5 to 1 mg/kg, iv after 15 mins by gamma-well counting analysis; type: ADME, organism-based; settings: in vivo, 0.25 h
Blood [41] = assay: Biodistribution in Sprague-Dawley rat blood assessed per organ at 0.5 to 1 mg/kg, iv after 1 hr by gamma-well counting analysis; type: ADME, organism-based; settings: in vivo
Kidney [42] = assay: Biodistribution in Sprague-Dawley rat kidney assessed per organ at 0.5 to 1 mg/kg, iv after 1 hr by gamma-well counting analysis; type: ADME, organism-based; settings: in vivo
Heart [43] = assay: Biodistribution in Sprague-Dawley rat heart at 0.5 to 1 mg/kg, iv after 15 mins by gamma-well counting analysis; type: ADME, organism-based; settings: in vivo, 0.25 h

CC(=O)c1cc(NC(=O)c2cccc([125I])c2)ccc1OCC(O)CNC(C)C (racemic)
Drug uptake (Bone [1]): 0.22 % ID/g
Drug uptake (Stomach [2]): 1.26 %ID
Drug uptake [3]: 7.66 %ID
Drug uptake (Kidney [4]): 1.16 % ID/g
Drug uptake (Muscle tissue [5]): 14.87 %ID
Drug uptake (Heart [6]): 0.66 %ID
Drug uptake (Kidney [7]): 2.8 % ID/g
Drug uptake (Muscle tissue [8]): 0.22 % ID/g
Drug uptake (Large intestine [9]): 1.01 %ID
Drug uptake (Blood [10]): 1 %ID
Drug uptake (Small intestine [11]): 15.4 %ID
Drug uptake (Thyroid gland [12]): 0.17 %ID
Drug uptake (Bone [13]): 0.17 % ID/g
Drug uptake (Lung [14]): 1.77 %ID
Drug uptake (Liver [15]): 1.59 % ID/g
Drug uptake [16]: 6.73 %ID
Drug uptake (Liver [17]): 12.11 %ID
Drug uptake (Bone [18]): 1.94 %ID
Drug uptake (Liver [19]): 2.4 % ID/g
Drug uptake (Heart [20]): 0.58 % ID/g
Drug uptake (Kidney [21]): 4.38 %ID
Drug uptake (Spleen [22]): 0.31 %ID
Drug uptake (Muscle tissue [23]): 0.2 % ID/g
Drug uptake (Thyroid gland [24]): 0.12 %ID
Drug uptake (Spleen [25]): 0.6 % ID/g
Drug uptake (Heart [26]): 0.31 %ID
Drug uptake (Thyroid gland [27]): 6.06 % ID/g
Drug uptake (Large intestine [28]): 2.42 %ID
Drug uptake (Lung [29]): 1.27 % ID/g
Drug uptake (Liver [30]): 20.19 %ID
Drug uptake (Bone [31]): 2.49 %ID
Drug uptake (Spleen [32]): 0.52 %ID
Drug uptake (Spleen [33]): 0.97 % ID/g
Drug uptake (Lung [34]): 1.63 % ID/g
Drug uptake (Blood [35]): 0.09 % ID/g
Drug uptake (Blood [36]): 0.06 % ID/g
Drug uptake (Small intestine [37]): 9.39 %ID
Drug uptake (Lung [38]): 1.41 %ID
Drug uptake (Stomach [39]): 1.19 %ID
Drug uptake (Muscle tissue [40]): 16.64 %ID
Drug uptake (Blood [41]): 0.74 %ID
Drug uptake (Kidney [42]): 1.83 %ID
Drug uptake (Heart [43]): 0.99 % ID/g
